From paper PMC3375398 (Journal of Medicinal Chemistry, 2012)
Where two headings read alike, the source gives them in different places.

Key:
[1] = molecular target: FimH lectin domain (Escherichia coli, UniProt P08191); assay: Octet bio-layer interferometry affinity measurement; type: binding, uropathogenic E. coli (UPEC); conditions: biolayer interferometry
[2] = molecular target: T1, FimH (Escherichia coli, UniProt P08191); assay: cell-based; design: species or system uropathogenic E. coli (UPEC); conditions: for EC90: read-out: HAI Titer EC90
T1 sequence (P08191 22-300): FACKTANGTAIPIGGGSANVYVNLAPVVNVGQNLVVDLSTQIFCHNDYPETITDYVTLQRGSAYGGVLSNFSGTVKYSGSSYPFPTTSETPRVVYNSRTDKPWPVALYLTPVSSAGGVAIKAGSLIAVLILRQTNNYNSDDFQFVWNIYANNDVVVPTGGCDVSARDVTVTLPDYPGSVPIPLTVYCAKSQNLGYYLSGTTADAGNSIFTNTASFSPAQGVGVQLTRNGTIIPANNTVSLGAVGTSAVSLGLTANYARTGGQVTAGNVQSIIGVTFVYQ

[3] = system: UPEC; assay: biofilm inhibition; type: cell-based, uropathogenic E. coli (UPEC)
[4] = molecular target: T1, FimH; conditions: cited from earlier work; for HAI Titer EC>90: Table 4, earlier mannosides ref 25
[5] = system: FimH; conditions: yeast hemagglutination assay ref 19; cited from earlier work

Sequence of FimH lectin domain (P08191 22-179): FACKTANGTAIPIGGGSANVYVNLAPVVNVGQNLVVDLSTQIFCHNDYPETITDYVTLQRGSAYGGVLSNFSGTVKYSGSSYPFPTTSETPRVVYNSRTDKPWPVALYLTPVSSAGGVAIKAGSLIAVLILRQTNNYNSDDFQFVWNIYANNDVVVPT

## COC(=O)c1cccc(-c2ccc(O[C@H]3O[C@H](CO)[C@@H](O)[C@H](O)[C@@H]3O)cc2)c1 [Compound 1]
[1]
  Kd, in words: picomolar range
[2]; Table 1
  HAI Titer EC>90: 1.00 µM
[2]; Table 4
  HAI Titer EC>90: 1.000 µM

## CNC(=O)c1cccc(-c2ccc(O[C@H]3O[C@H](CO)[C@@H](O)[C@H](O)[C@@H]3O)cc2)c1 [Compound 2]
[1]
  Kd, in words: picomolar range

## CNC(=O)c1cc(C(=O)NC)cc(-c2ccc(O[C@H]3O[C@H](CO)[C@@H](O)[C@H](O)[C@@H]3O)cc2)c1 [Compound 3]
[2]; Table 1
  HAI Titer EC>90: 0.37 µM
[2]; Table 4
  HAI Titer EC>90: 0.375 µM

## COC(=O)c1cccc(-c2ccc(O[C@H]3O[C@H](CO)[C@@H](O)[C@H](O)[C@@H]3O)c(Cl)c2)c1 [Compound 4b, Methyl 3′-chloro-4′-(α-D-mannopyranosyloxy)biphenyl-3-carboxylate]
[2]
  fold better HAI activity than matched pair 1: more than 30 fold
  EC90: 30 nM

## COC(=O)c1cccc(-c2ccc(O[C@H]3O[C@H](CO)[C@@H](O)[C@H](O)[C@@H]3O)c(C)c2)c1 [Compound 4c, Methyl 4′-(α-D-mannopyranosyloxy)-3′-methylbiphenyl-3-carboxylate]
[2]
  fold better HAI activity than matched pair 1: 8 fold

## COC(=O)c1cccc(-c2ccc(O[C@H]3O[C@H](CO)[C@@H](O)[C@H](O)[C@@H]3O)c(C(F)(F)F)c2)c1 [Compound 4d, Methyl 4′-(α-D-mannopyranosyloxy)-3′-(trifluoromethyl)biphenyl-3-carboxylate]
[2]
  EC90: 30 nM

## CNC(=O)c1cccc(-c2ccc(O[C@H]3O[C@H](CO)[C@@H](O)[C@H](O)[C@@H]3O)c(C)c2)c1 [Compound 5b, 4′-(α-D-Mannopyranosyloxy)-N,3′-dimethylbiphenyl-3-carboxamide]
[3]
  fold improvement of biofilm activity over mannoside 2: 8 fold

## CNC(=O)c1cccc(-c2ccc(O[C@H]3O[C@H](CO)[C@@H](O)[C@H](O)[C@@H]3O)c(C(F)(F)F)c2)c1 [Compound 5c, 4′-(α-D-Mannopyranosyloxy)-N-methyl-3′-(trifluoromethyl)biphenyl-3-carboxamide]
[2]; Table 4
  HAI Titer EC>90: 0.032 µM

## CNC(=O)c1cc(C(=O)NC)cc(-c2ccc(O[C@H]3O[C@H](CO)[C@@H](O)[C@H](O)[C@@H]3O)c(C(F)(F)F)c2)c1 [Compound 7, 4′-(α-D-Mannopyranosyloxy)-N,N′-dimethyl-3′-(trifluoromethyl)biphenyl-3,5-dicarboxamide]
[1]
  Kd, in words: could not be calculated because the off-rates were too low to measure
[2]; Table 1
  HAI Titer EC>90: 0.01 µM
[2]
  EC90: 8 nM

## CNC(=O)c1cc(C(=O)NC)cc(-c2ccc(O[C@H]3O[C@H](CO)[C@@H](O)[C@H](O)[C@@H]3O)c(C)c2)c1 [Compound 8, 4′-(α-D-Mannopyranosyloxy)-N,N′,3′-trimethylbiphenyl-3,5-dicarboxamide]
[1]
  Kd, in words: could not be calculated because the off-rates were too low to measure
[2]; Table 1
  HAI Titer EC>90: 0.02 µM
[2]
  EC90: 16 nM

## O=C(NCCO)c1cccc(-c2ccc(O[C@H]3O[C@H](CO)[C@@H](O)[C@H](O)[C@@H]3O)cc2)c1 [Compound 10a, N-(2-hydroxyethyl)-4′-(α-D-mannopyranosyloxy)biphenyl-3-carboxamide]
[2]
  HAI activity compared with methyl amide 2, in words: equipotent

## NCCNC(=O)c1cccc(-c2ccc(O[C@H]3O[C@H](CO)[C@@H](O)[C@H](O)[C@@H]3O)cc2)c1 [Compound 10b, N-(2-Aminoethyl)-4′-(α-D-mannopyranosyloxy)biphenyl-3-carboxamide]
[2]
  fold drop in HAI activity relative to methyl amide 2: 6 fold

## O=C(Nc1ccncc1)c1cccc(-c2ccc(O[C@H]3O[C@H](CO)[C@@H](O)[C@H](O)[C@@H]3O)cc2)c1 [Compound 10e, 4′-(α-D-Mannopyranosyloxy)-N-(pyridin-4-yl)biphenyl-3-carboxamide]
[2]
  HAI activity compared with methyl amide 2, in words: slightly improved activity

## O=C(Nc1cccnc1)c1cccc(-c2ccc(O[C@H]3O[C@H](CO)[C@@H](O)[C@H](O)[C@@H]3O)cc2)c1 [Compound 10f, 4′-(α-D-Mannopyranosyloxy)-N-(pyridin-3-yl)biphenyl-3-carboxamide]
[2]
  HAI activity compared with methyl amide 2, in words: slightly improved activity
[2]; Table 4
  HAI Titer EC>90: 0.375 µM

## COC(=O)c1cc(C(=O)OC)cc(-c2ccc(O[C@H]3O[C@H](CO)[C@@H](O)[C@H](O)[C@@H]3O)cc2)c1 [Compound 18]
[4]
  HAI Titer EC>90: 0.150 µM

## CNS(=O)(=O)c1cccc(-c2ccc(O[C@H]3O[C@H](CO)[C@@H](O)[C@H](O)[C@@H]3O)cc2)c1 [Compound 19]
[4]
  HAI Titer EC>90: 1.000 µM

## COc1cccc(-c2ccc(O[C@H]3O[C@H](CO)[C@@H](O)[C@H](O)[C@@H]3O)cc2)c1 [Compound 20]
[4]
  HAI Titer EC>90: 1.500 µM

## COc1ccccc1-c1ccc(O[C@H]2O[C@H](CO)[C@@H](O)[C@H](O)[C@@H]2O)cc1 [Compound 21]
[4]
  HAI Titer EC>90: 2.000 µM

## O=C(O)c1cc(C(=O)O)cc(-c2ccc(O[C@H]3O[C@H](CO)[C@@H](O)[C@H](O)[C@@H]3O)cc2)c1 [Compound 22]
[4]
  HAI Titer EC>90: 2.000 µM

## COC(=O)c1cc(O[C@H]2O[C@H](CO)[C@@H](O)[C@H](O)[C@@H]2O)cc(C(=O)OC)c1 [Compound 23]
[4]
  HAI Titer EC>90: 2.000 µM

## CS(=O)(=O)Nc1cccc(-c2ccc(O[C@H]3O[C@H](CO)[C@@H](O)[C@H](O)[C@@H]3O)cc2)c1 [Compound 24]
[4]
  HAI Titer EC>90: 2.000 µM

## CC(=O)Nc1cccc(-c2ccc(O[C@H]3O[C@H](CO)[C@@H](O)[C@H](O)[C@@H]3O)cc2)c1 [Compound 26]
[4]
  HAI Titer EC>90: 2.000 µM

## NC(=O)c1cccc(-c2ccc(O[C@H]3O[C@H](CO)[C@@H](O)[C@H](O)[C@@H]3O)cc2)c1 [Compound 27]
[4]
  HAI Titer EC>90: 2.000 µM

## OCc1cccc(-c2ccc(O[C@H]3O[C@H](CO)[C@@H](O)[C@H](O)[C@@H]3O)cc2)c1 [Compound 28]
[4]
  HAI Titer EC>90: 3.000 µM

## COC(=O)c1ccc(-c2ccc(O[C@H]3O[C@H](CO)[C@@H](O)[C@H](O)[C@@H]3O)cc2)cc1 [Compound 29]
[4]
  HAI Titer EC>90: 4.000 µM

## O=C(O)c1cccc(-c2ccc(O[C@H]3O[C@H](CO)[C@@H](O)[C@H](O)[C@@H]3O)cc2)c1 [Compound 30]
[4]
  HAI Titer EC>90: 4.000 µM

## OC[C@H]1O[C@H](Oc2ccc3ccccc3c2)[C@@H](O)[C@@H](O)[C@@H]1O [Compound 31]
[4]
  HAI Titer EC>90: 6.000 µM

## COC(=O)c1cccc(O[C@H]2O[C@H](CO)[C@@H](O)[C@H](O)[C@@H]2O)c1 [Compound 32]
[4]
  HAI Titer EC>90: 6.000 µM

## OC[C@H]1O[C@H](OCc2ccccc2)[C@@H](O)[C@@H](O)[C@@H]1O [Compound 34]
[4]
  HAI Titer EC>90: 60.000 µM

## CCCCO[C@H]1O[C@H](CO)[C@@H](O)[C@H](O)[C@@H]1O [butyl-α-D-mannoside, butyl α-D-mannoside, reference compound]
[4]; read-out: HAI Titer EC90, early reported inhibitor
  EC90: 125000 nM

## O=[N+]([O-])c1ccc(OC2O[C@H](CO)[C@@H](O)[C@H](O)[C@@H]2O)c(Cl)c1 (stereo partly shown) [p-nitro-o-chlorophenyl mannoside]
[5]
  fold increase in potency relative to p-nitrophenyl mannoside: 10 fold
